Values of other authors in patent US7196076B2, “Androgen receptor modulators and methods of use thereof” (Merck & Co., Inc., priority 2001, dated 2007).
Where a name gives a salt, the structure may show the parent alone.

Experiments:
[1] = median of 22 months of treatment
[2] = after 7 years of treatment

Molecule | reduction in nonvertebral fractures [1] [%] | reduction in spine fractures [1] [%] | increase in spinal BMD [2] [%]
hPTH(1–34): human parathyroid hormone 1–34 fragment (SVSEIQLMHNLGKHLNSMERVEWLRKKLQDVHNF; Parathyroid hormone; UniProt P01270 32-65, looked up, fragment) | 54 | ≥ 65 | –
NCCCC(O)(P(=O)(O)O)P(=O)(O)O [alendronate, 4-amino-1-hydroxybutylidene-1,1-bisphosphonic acid monosodium salt, trihydrate] | – | – | 11
